In brackets after ≈: the same amount, converted by molar mass. Like-named read-outs stand apart in the source and are kept apart here.
Assays:
[1] = test system: human monocytic THP-1 cell line; experiment: Cytotoxicity assay in THP-1 monocytes (CellTiter-Blue, 24 h); type: cell-based; conditions: for IC50: Homo sapiens; for toxicity (in words): compared to the other active compounds
[2] = test system: Mycobacterium tuberculosis H37Rv; experiment: MIC determination by resazurin microtiter plate assay (REMA) with CellTiter-Blue; type: cell-based; conditions: for MIC: M. tuberculosis H37Rv, 7 days, two-fold dilutions 100 to 1.56 μg/mL, Gompertz fit; for antimycobacterial activity (in words): dose response, Figure 6
[3] = test system: THP-1 cells; conditions: cited from earlier work
[4] = test system: Mycobacterium tuberculosis H37Rv; experiment: Compound library screen against M. tuberculosis at 100 μg/mL (CellTiter-Blue viability); type: cell-based; conditions: library screen at 100 μg/mL, 7 days
[5] = test system: human monocyte cells; conditions: cited from earlier work
[6] = test system: AML12 hepatocytes; conditions: cited from earlier work
[7] = THP-1 cells, 24 h treatment, 200 to 1.56 μg/mL, read-out: IC50
[8] = Mycobacterium tuberculosis, H37RV, 168 h, read-out: MIC

OCCCC#CC#CC#CC#CCCCO [Compound C53, Tetradeca-4,6,8,10-tetrayne-1,14-diol]
IC50 [1, 7]: 17 µg/mL (≈ 79.3 µM) | MIC [2]: 17.88 µg/mL (≈ 83.4 µM) | MIC [2, 8]: < 20 µg/mL | melting point: 116.5 to 117 °C

CCOC(=O)C1=C(C)N(c2ccccc2)C(C)=C(C(=O)OCC)C1c1ccc(O)cc1 [Compound C45]
MIC [2, 8]: ≥ 100 µg/mL

COc1c(C=O)c(O)cc2c1C(=O)c1ccccc1C2=O [Compound C22, Damnacanthal]
IC50 [1, 7]: 21.4 µg/mL (≈ 75.9 µM) | MIC [2]: 13.07 µg/mL (≈ 46.3 µM) | MIC [2, 8]: < 20 µg/mL | cytotoxic concentration 50% (CC50) [3]: 8.87 µg/mL

CC(C)=CCc1c(O)ccc(C(=O)/C=C/c2ccc(O)cc2)c1O [Compound C1, Isobavachalcone]
IC50 [1, 7]: 45.9 µg/mL (≈ 141 µM) | cytotoxic concentration 50% (CC50) [3]: 11.65 µg/mL

CCOC(=O)C1=C(C)N(c2ccccc2)C(C)=C(C(=O)OCC)C1c1cc(OC)c(O)c(OC)c1 [Compound C49]
MIC [2, 8]: ≥ 100 µg/mL

CCOC(=O)C1=C(C)NC(C)=C(C(=O)OCC)C1c1cc(OC)c(O)c(OC)c1 [Compound C41]
MIC [2, 8]: ≥ 100 µg/mL

COc1c(C)c(O)cc2c1C(=O)c1ccccc1C2=O [Compound C25, rubiadin 1-methyl ether]
anti-M. tuberculosis activity (in words) [4]: no anti-M. tuberculosis activity

CCOC(=O)C1=C(C)NC(C)=C(C(=O)OCC)C1c1ccc(O)c(OC)c1 [Compound C38]
MIC [2, 8]: ≥ 100 µg/mL

CC1(C)C=Cc2c(ccc(C(=O)/C=C/c3ccc(O)cc3)c2O)O1 [Compound C21, 4-hydroxylonchocarpine]
anti-M. tuberculosis activity (in words) [4]: not mycobactericidal

CCOC(=O)C1=C(C)NC(C)=C(C(=O)OCC)C1c1cc(OC)c(OC)c(OC)c1 [Compound C40]
MIC [2, 8]: ≥ 100 µg/mL

COC(=O)C1=C(N)Oc2cc(O)cc(O)c2C1c1ccc([N+](=O)[O-])cc1 (stereo not drawn) [Compound C16]
anti-M. tuberculosis activity (in words) [4]: not active

CC#CC#CC#CCCCO [Compound C51, Deca-4,6,8-triyn-1-ol]
IC50 [1, 7]: 170 µg/mL (≈ 1170 µM) | toxicity (in words) [1]: low toxicity

COC(=O)C1=C(N)Oc2cc(O)cc(O)c2C1c1ccc(Br)cc1 (stereo not drawn) [Compound C15]
MIC [2, 8]: ≥ 100 µg/mL

CC(C)=CCc1c(O)c(CC=C(C)C)c2c(c1O)C(=O)C[C@@H](c1ccc(O)c(O)c1)O2 [Compound C24, 6,8-diprenyleriodictyol]
MIC [2, 8]: ≥ 100 µg/mL

COC(=O)C1=C(N)Oc2cc(O)cc(O)c2C1c1ccc(Cl)cc1 (stereo not drawn) [Compound C14]
IC50 [1, 7]: 47.2 µg/mL (≈ 136 µM) | MIC [2, 8]: ≥ 100 µg/mL | antimycobacterial activity (in words) [2]: weak antimycobacterial activity | toxicity to human monocyte cells (in words) [5]: moderately toxic

CCOC(=O)C1=C(C)NC(C)=C(C(=O)OCC)C1c1ccc([N+](=O)[O-])cc1 [Compound C36]
MIC [2, 8]: ≥ 100 µg/mL

COC(=O)/C(C#N)=C/C=C/c1ccccc1 [Compound C13]
IC50 ([1]; THP-1, 24 h): 95.9 µg/mL (≈ 450 µM) | MIC [2, 8]: ≥ 100 µg/mL | antimycobacterial activity (in words) [2]: weak activity | toxicity to human monocyte cells (in words) [5]: moderately toxic

CC1(C)C=Cc2cc3c(cc2O1)O[C@H]1c2ccc(O)cc2OC[C@@H]31 [Compound C23, Isoneorautenol]
IC50 [1, 7]: 44.3 µg/mL (≈ 137 µM) | MIC [2]: 49.22 µg/mL (≈ 153 µM) | MIC [2, 8]: 25 to 71 µg/mL (≈ 77.6 to 220 µM) | concentration up to which no cytotoxicity was shown [6]: > 123.46 µM

COC(=O)C1=C(N)Oc2cc(O)c3c(C)cc(=O)oc3c2C1c1ccc([N+](=O)[O-])cc1 (stereo not drawn) [Compound C10]
IC50 [1, 7]: 64.2 µg/mL (≈ 151 µM) | toxicity (in words) [1]: low toxicity | MIC [2]: 29.13 µg/mL (≈ 68.6 µM) | MIC [2, 8]: 25 to 71 µg/mL (≈ 58.9 to 167 µM)
